Laboratory results: a melting point compilation (Tetko et al.; mined from patent text by program, amines drawn as free bases though some values may be those of a salt)

SMILES	melting point [°C]
CCNC(=O)Nc1nc2cc(-c3cncnc3)cc(C(=O)NCC)n2n1	317 to 321
CCOc1nc(=O)n([C@H]2CS[C@@H](CO)O2)cc1F (relative stereo)	162 to 164
CC(=O)Cc1ccc(OCC2CO2)cc1 (stereo unspecified)	43
N#Cc1ccc(OCCCCCOc2cccc(-c3cc4cc(C#N)ccc4o3)c2)cc1	142 to 145
CCNC(=O)NCc1ccc(/C=C/C(c2cc(Cl)c(Cl)c(Cl)c2)C(F)(F)F)c2ccccc12 (stereo unspecified)	84 to 87
O=C(Oc1ccc2cc(CN3CCCC3)ccc2c1)N1CCC(c2ccc(F)cc2)CC1	106 to 108
CON1CCC2(CC1)NC(=O)C(F)(c1cc(C)ccc1C)C2=O (stereo unspecified)	127 to 130
CC(=O)c1ccc(SCc2cc3c(cc2O)CCCO3)cc1	192 to 193
COC(=O)c1ccc(CNc2cc(C(=O)Nc3ccccc3)ccc2OC)cc1	170 to 172
CCC(CC)CNC(=O)c1ccc2cccc(Cc3ccc(C(=O)O)cc3OC)c2c1	198 to 199
COC(=O)c1ccc(Cl)cc1NC(=O)CSc1cccc(C)c1	75 to 77
CCOC(=O)c1sc2cc(COS(C)(=O)=O)ccc2c1S(=O)c1cccc(OC)c1 (stereo unspecified)	80 to 83
CC(C)(C)OC(=O)n1cc(C(=O)C2CSC(c3cccnc3)N2C(=O)C=O)c2ccccc21 (stereo unspecified)	125 to 130
CC1(CN2CCN(C(=O)OCc3ccc(C(=O)c4ccccc4)cc3)CC2)Cn2cc([N+](=O)[O-])nc2O1 (stereo unspecified)	105 to 107
O=C(O)CNC(=O)Cc1ccccc1S	91 to 93
Cc1c[nH]c(-c2ccnc(NC(=O)c3ccccc3)c2)n1	133 to 135
O=C1c2cc(-c3ccc(C(F)(F)F)cc3)ccc2CC1Br (stereo unspecified)	105
CCOC(=O)CCC1(NC(=O)c2ccc(Cl)c(Cl)c2)C(=O)N(CC(=O)O)c2ccccc21 (stereo unspecified)	219 to 220
CC(=O)N1CCC(c2nn(-c3ccc(F)cc3)c3ccccc23)CC1	99 to 101
COc1ccc(S(=O)(=O)c2ccc(OC)c(CC3CO3)c2)cc1CC1CO1 (stereo unspecified)	105 to 108
O=C(CC1CSCCC1=O)c1ccc(Br)cc1 (stereo unspecified)	87.5 to 89.5
CC(C)(C)OC(=O)N1Cc2c(Br)sc(-c3ccccc3)c2C1	139 to 140
CCN1CCCC1CNC(=O)CCCOc1ccc2nc3[nH]c(=O)[nH]c3cc2c1 (stereo unspecified)	233 to 237
Cn1c(C(F)(F)F)cc(C#N)c1-c1ccc(Cl)c(Cl)c1	130

SMILES	melting point [°C]
Cc1c(Cc2ccc(C(C)C)cc2)c2c(c(C)c1NC(=O)CC(C)(C)C)CC(C)(CN1CCCC1)O2 (stereo unspecified)	143 to 144
CSc1nnc(-c2snnc2C)o1	65
Cc1oc(-c2ccco2)nc1COc1ccc(C#N)cn1	105 to 106
COc1ccc(S(=O)(=O)/C(=C/C(=O)NO)CCCCc2ccccc2)cc1OC	123 to 126
CC1(C)CC(=NN)c2ccccc21	194 to 197
CC1(C)CC(N2C(=O)C=CC2=O)CC(C)(C)N1OC1CCCCC1	135 to 139
CCCn1nc(-c2ccc(OC)cc2)cc(C(=O)NC)c1=O	106 to 107
CCCCC(=O)Nc1ccc(N)cc1Cl	96.5 to 99
O=C(NCCOc1ccccn1)C1Cc2ccccc2N1S(=O)(=O)c1ccc(-c2cccc(C(F)(F)F)c2)cc1 (stereo unspecified)	85
O=S1(=O)c2ccccc2-n2c(Cl)nnc21	218 to 220
Cc1cc2c3c(c1)c1c(n3CCNC2)CCC1	168 to 170
COc1ccccc1NC1CN(C(c2ccccc2)c2ccccc2)C1	75 to 77
O=C(CCc1cccnc1)NCCCCC1CCN(S(=O)(=O)c2ccc3ccccc3c2)CC1	103 to 105
CC1(C)CCC(C(=O)N2CCC[C@H]2C(=O)O)C1S (stereo partly specified)	153
O=C(O)C(=O)c1ccc(OCCOc2cccc3ccccc23)cc1	124 to 125
Cn1c(=O)c2c(N)ncnc2n(C)c1=O	> 300
CON=C(C(=O)OC)c1cccs1	106
CCOc1cccnc1C(=O)NCCNC(=O)OC(C)(C)C	125 to 126
CCCCCCCCCCCCCCCCCCNC(=O)c1ccc(O)cc1	105
COC(=O)c1[nH]c2c(C)ccc(C)c2c1Cl	115 to 116
CCCCCCCCCCCCP(=O)(O)CCCN	175 to 177
CN1Cc2c(C(=O)OCC3CCC3)ncn2-c2cccc(Cl)c2C1=O	181 to 182
O=C(O)c1ccccc1-c1cc(-c2ccc(O)cc2)[nH]n1	260 to 264
CS(=O)(=O)N1CCN(CCC(CS(=O)(=O)c2ccc(Oc3ccc(OC(F)(F)F)cc3)cc2)N(O)C=O)CC1 (stereo unspecified)	166 to 167

SMILES	melting point [°C]
COC(=O)C1=C(C)NC(C)=C(C(=O)OCCN2CCN(S(=O)(=O)c3ccc(Cl)cc3)CC2)C1c1cccc([N+](=O)[O-])c1 (stereo unspecified)	97 to 105
CCC(=O)N1CCC(NC(=O)Nc2ccccc2F)CC1	127 to 130
CC(c1ccc(COCc2ccccc2)o1)N(O)C(N)=O (stereo unspecified)	121
CC(C)Oc1ccc(O)cc1OCCN1C(=O)c2ccccc2C1=O	123
O=c1[nH]c(CO)nc2cc3c(cc12)CCC3	205 to 210
O=C(N1CCCCCC1)N1CC(Oc2cccc(C(F)(F)F)c2)C1	64.5 to 66
COc1ccccc1N(CCN1CCC(C(=O)c2ccc(F)cc2)CC1)C(=O)c1ccc([N+](=O)[O-])cc1	166 to 168
CCCCc1nc(SC)c(C(=O)OCC)n1Cc1cccc(-c2cccc(S(=O)(=O)NC#N)c2)c1	112
Cc1ccc(CSC2=C(O)CC(C)(C)CC2=O)cc1	100 to 102
COC(=O)NC[C@H]1CN(c2ccc3c(c2)CCCc2cnoc2-3)C(=O)O1	166 to 168
NC(/C=C(/F)P(=O)(O)O)CCc1ccc(Sc2cccc(OCc3ccccc3)c2)cc1Cl (stereo unspecified)	285 to 288
Cc1ccc(-c2c3ccccc3nc3ccc(N(S(C)(=O)=O)S(C)(=O)=O)cc23)cc1	217 to 219
CC(OC(=O)Nc1ccc(-c2ncn(-c3ccc(C(F)(F)F)cc3)n2)cc1)c1ccc(C(F)(F)F)cc1 (stereo unspecified)	156 to 158
CCCN(CCC)S(=O)(=O)c1cccc(C(=O)Nc2ccc(Br)cc2C)c1	135 to 136
O=C1c2c(Cl)cccc2-n2cnc(-c3cccs3)c2[C@@H]2CCCN12	226 to 227
COc1ccc(CBr)cc1-c1nsc2ccc(-n3c(=O)cc(C(F)(F)F)n(C)c3=O)cc12	158 to 160
C=CC(=O)Nc1cccc(OC(=O)NCCCCCCCCCCCCCCCCCC)c1	124 to 126
COc1ccc2cc(C(C)C(=O)OCCC3(C)CCc4c(C)c(O)c(C)c(C)c4O3)ccc2c1 (stereo unspecified)	99.5 to 102
O=C(Oc1ccccc1)c1cc([N+](=O)[O-])c2ccccc2c1O	157
O=C(O)c1sc2ccc3c(c2c1Cl)O[C@@H](CO)CO3	236 to 237
CC(C)C(NC(=O)[C@@H]1CCCN1C(=O)[C@@H](NC(=O)c1ccc(C(=O)N2CCOCC2)nc1)C(C)C)C(=O)C(F)(F)C(F)(F)F (stereo partly specified)	111 to 112
OCC1OC(OC2C(CO)OC(CO)C2O)C(O)C(O)C1O (stereo unspecified)	162 to 164
COc1ccnc(CS(=O)c2nc3cc(C(F)(F)F)ccc3[nH]2)c1C (stereo unspecified)	225 to 227
